# Results taken from patent US10925921B2, “Fermented Pennisetum extract” (Sagittarius Life Science Corp., priority 2016, dated 2021).
# How the values were obtained:
# Format in all cases: in vivo, BALB/c nu/nu mice
# [1] = system: human lung adenocarcinoma cell line, NCl-H441; assay: Survival (Kaplan-Meier) in orthotopic lung tumor-bearing mice; details: docetaxel 2.5 mg/kg b.w., orthotopic model
# Experimental: Male BALB/c nu/nu mice were used in the orthotopic model and divided into five groups, control group (5 mice), tumor group (10 mice), three experimental groups (25-PPE, 50-PPE and 100-PPE) (each group for 10 mice) and docetaxel group (8 mice). The mice of the control group and the tumor group were subjected to intraperitoneal injection (i.p.) with vehicle, while 10 mice of each of the experimental groups, 25-PPE group (25 mg/kg of PPE), 50-PPE group (50 mg/kg of PPE) and 100-PPE group (100 mg/kg of PPE), were i.p. administered with 25 mg/kg of PPE, 50 mg/kg of PPE and 100 mg/kg of PPE obtained in Example 1, respectively, and 8 mice of the docetaxel group were administered with 2.5 mg/kg of docetaxel.
# The mice were injected with the cell solution of human lung adenocarcinoma cell line, NCl-H441, in matrigel (0.8×10^6 cells/70 μL/mice). Three days after injections, the PPEs at the above-mentioned doses were i.p. administered to the mice twice every two weeks. The tumor growth was monitored by Non Invasion In Vivo Imaging System (IVIS).
# [2] = system: human lung adenocarcinoma cell line, NCl-H441; assay: Computed tomography (CT) lung screening assay in orthotopic model; details: docetaxel 2.5 mg/kg, fourth week; tumor group 11.1+/−2.8%
# From the text: FIGS. 5(A) and (B) show the inhibitory effects of PPE on analysis of tumor volume in orthotopic model. (A) The micro-CT images and quantitative end-points for lung tumor growth. Longitudinal and transverse micro-CT images of tumor growth in control and treatment of PPE. Each tumor scanned by micro-CT was reconstructed to three-dimensional images (axial, sagittal, and coronal), and diameters measured periodically as indicated. Data represent presence of tumor value in each group. (B) The tissue of lung lesions in nude mice. Representative lung tumor formed in different group. Tumors observed in the lungs are indicated with a yellow arrow;
# In the orthotopic model of Example 3, the mice were subjected to CT lung screening to detect the tumor size in lung at the fourth week. The tumor accounts for 11.1+/−2.8% of the lung in the tumor group, 10.1+/−3.9% in the 25-PPE group, 9.3+/−1.4% in the 50-PPE group, 7.5+/−2.3% in the 100-PPE group and 8.0+/−1.1% in the docetaxel group (see FIG. 5).
# [3] = system: human lung adenocarcinoma cell line, NCl-H441; assay: Tumor growth assay in orthotopic lung model, IVIS bioluminescence; details: docetaxel 2.5 mg/kg, from the fourth week
# Experimental: FIGS. 3(A) and (B) show the inhibitory effect of PPE on tumor growth of orthotropic lung tumor-bearing BALB/c nude mice. H441-luc were orthotopically injected into the lung of mice at a concentration of 0.8×10^6 cells/70 μL PBS. PPE treatments (three dosages 25, 50, and […].) twice a week by intraperitoneal injection into tumor-bearing animals over a period of 4 weeks. (A) Representative non-invasive bioluminescence images show tumor progression of mice in orthtopic model. (B) Bar graphs were quantified by Living Image analysis software (n=8-10). Data were analyzed by Student's t-test and are shown as mean±SD*P<0.05 compared with control. § P<0.05 compared with week 4 tumor group;
# Male BALB/c nu/nu mice were used in the orthotopic model and divided into five groups, control group (5 mice), tumor group (10 mice), three experimental groups (25-PPE, 50-PPE and 100-PPE) (each group for 10 mice) and docetaxel group (8 mice). […]
# The mice were injected with the cell solution of human lung adenocarcinoma cell line, NCl-H441, in matrigel (0.8×10^6 cells/70 μL/mice). […] The tumor growth was monitored by Non Invasion In Vivo Imaging System (IVIS).
structure (smiles),measurement,setting,value
CC(=O)O[C@@]12CO[C@@H]1C[C@H](O)[C@@]1(C)C(=O)[C@H](O)C3=C(C)[C@@H](OC(=O)[C@H](O)[C@@H](NC(=O)OC(C)(C)C)c4ccccc4)C[C@@](O)([C@@H](OC(=O)c4ccccc4)[C@H]21)C3(C)C [docetaxel],"lifespan, Kaplan-Meier cumulative survival analysis",[1],significant (p<0.05) increase in lifespan
same,tumor share of the lung (CT tumor volume ratio),[2],8.0+/−1.1%
same,tumor bioluminescence (IVIS),[3],0.5+/−0.07×10^7 photons/sec
